# Read-outs that look alike come from different tables or passages of the source.
# Key:
# [1] = tested on: ESBL E. coli; test: MIC in LB broth, ESBL E. coli clinical isolate; type: cell-based, Escherichia coli
# Protocol: (§1) We thus tested 1–8 and III initially on the reference sensitive E. coli ATCC 25922 and on the extended-spectrum of beta-lactamase-positive (ESBL) E. coli, as Gram-negative bacteria. Moreover, in order to evaluate the susceptibility of this series of compounds to the efflux pump AcrAB, we employed also the above-mentioned E. coli N43, which is the knockout of the AcrAB cell membrane pump.
# (§2) Normal human lung fibroblasts (MRC-5) were grown in Dulbecco’s modified Eagle’s medium (DMEM) supplemented with 10% calf serum, 100 U/mL penicillin and […] streptomycin in an incubator at 5% CO2 atmosphere and 37 °C. The Gram-positive Staphylococcus aureus (methicillin-sensitive, MSSA ATCC 29213, and methicillin-resistant, MRSA ATCC 43300) and the Gram-negative Escherichia coli (ESBL, extended-spectrum beta-lactamase-positive) bacterial cells were grown in Luria-Bertani broth (LB) at 37 °C under constant shaking at 300 rpm.
# (§3) The antibacterial activity was tested on both a methicillin-sensitive and a methicillin-resistant S. aureus strain, and an ESBL E. coli clinical isolate. All the compounds were dissolved at the final concentration of 20 mg/mL in dimethyl sulfoxide (DMSO) and serially diluted in LB. Fresh cell cultures were used at 10^5 cells/mL in a final volume of 2 mL. Each bacterial sample was grown with different compound concentrations that ranged from 100 to 0.1 μg/mL. […] To determine the MBC, the bacteria were then washed three times with LB, centrifuged at 900× g for 10 min at 4 °C, and the pellet resuspended in fresh LB. After overnight incubation at 37 °C, the absence of growth was confirmed by OD measurement. The presence of antibacterial activity, at any concentration tested, was established for values of absorbance < 0.1 OD600. All tests were performed in quadruplicate and for each series of experiments, both positive (no compounds) and negative (no bacteria) controls were included.
# [2] = tested on: MSSA ATCC 29213; test: MIC/MBC determination in LB broth, MSSA; type: cell-based, Staphylococcus aureus; conditions: for MBC / MBC/MIC / MIC: MSSA ATCC 29213
# Protocol: as §2, §3
# [3] = tested on: MDRSA 11.7; test: Broth microdilution MIC, MDRSA 11.7; type: cell-based, Staphylococcus aureus
# Protocol: (§4) Antimicrobial activity of 1–8 was evaluated on both Gram-positive (Table 3) and Gram-negative (Table 4) species. As a continuation of our previous studies, considering the Gram-positive S. aureus, we chose a methicillin-sensitive S. aureus (MSSA, ATCC 29213), a methicillin-resistant S. aureus (MRSA, ATCC 43300) and two clinical isolates of S. aureus showing multi-drug resistance (MDRSA).
# (§5) Antibacterial activities of compounds were determined by the broth microdilution method against MDRSA 11.7, MDRSA 12.1 and E. coli N43 following the European Committee on Antimicrobial Susceptibility Testing (EUCAST) recommendations and Clinical and Laboratory Standards Institute (CLSI) guidelines. Strains MDRSA ST-11.7 and ST-12.1 were obtained through the interlaboratory control organized by the EU Reference Laboratory—Antimicrobial Resistance. Only data on their resistance to antibiotics are known, but other data are not available.
# (§6) Bacterial suspension of specific bacterial strain equivalent to 0.5 McFarland turbidity standard was diluted with cation-adjusted Mueller Hinton broth with TES (Thermo Fisher Scientific), to obtain a final inoculum of 10^5 CFU/mL. Compounds dissolved in DMSO and inoculum were mixed together and incubated for 20 h at 37 °C. After incubation, the minimal inhibitory concentration (MIC) values were determined by visual inspection as the lowest dilution of compounds showing no turbidity. Tetracycline was used as a positive control on every assay plate.
# [4] = tested on: MRC-5 cells; test: MTT cytotoxicity assay; type: cell-based, human; conditions: MRC-5, concentration reducing cell viability by 90%, 24-h incubation
# Protocol: The compounds showing the most promising activities vs. MRSA were also assessed for their cytotoxicity on human MRC-5 cells. TD90, the concentration (µg/mL) able to reduce by 90% the viability of these cells, was determined together with the therapeutic index (TI), expressed as the ratio between TD90 and MBC values.
# as §2
# Compounds showing an antibacterial activity at a concentration lower than 10 μg/mL were serially diluted in DMEM and tested on MRC-5 cells by the MTT cytotoxicity assay (Sigma, St Louis, MO, USA). Cells (10^4 cells/well) were tested in a 96-well plate, in quadruplicate, using serially two-fold-diluted concentrations of the compound in 100 μL DMEM medium. After a 24-h incubation, the compound was removed, and the cells were overlaid with 1 mg/mL MTT in 100 μL serum-free DMEM for 3 h at 37 °C. The MTT solution was then replaced with DMSO for 10 min, and the absorbance was measured at 570 nm. The percentage of cytotoxicity was calculated by the formula [100 − (sample OD/untreated cells OD) × 100]. The compound concentration reducing cell viability by 90% was defined as the TD90 cytotoxic dose. The “therapeutic index” (TI) was also determined and defined as the ratio between TD90 and the MBC values.
# [5] = tested on: MRSA ATCC 43300; test: MIC/MBC determination in LB broth, MRSA; type: cell-based, Staphylococcus aureus
# Protocol: as §2, §3
# [6] = tested on: E. coli ATCC 25922; test: MIC on reference sensitive E. coli; type: cell-based, Escherichia coli
# Source text: as §1
# [7] = tested on: MDRSA 12.1; test: Broth microdilution MIC, MDRSA 12.1; type: cell-based, Staphylococcus aureus
# Protocol: as §4, §5, §6
# [8] = tested on: E. coli N43; test: Broth microdilution MIC, efflux-defective E. coli N43; type: cell-based, Escherichia coli
# Protocol: as §1, §5, §6
# [9] = tested on: Methicillin Sensitive S. aureus; conditions: cited from earlier work; for MIC vs. MSSA: chromanes ref 22
# [10] = tested on: E. coli AcrAB–; conditions: ref 10 (Z2, Z3), 11 (TXY436), 12 (I, II); cited from earlier work
# [11] = tested on: S. aureus ATCC 43300; test: Transmission electron microscopy of septum formation; type: cell-based, Staphylococcus aureus; conditions: MRSA cultured overnight; 1 at 1 μg/mL, DFNB at 0.25 μg/mL
# Source text: After having assessed the antimicrobial profile of this class of derivatives, we chose 1 to be further analyzed by transmission electron microscopy (TEM), in order to evaluate any morphological changes in septum formation, as done before as a simple FtsZ target validation assay. We cultured S. aureus ATCC 43300 alone or in the presence of 1 and 2,6-difluorononyloxybenzamide (DFNB) as a reference FtsZ inhibitor (positive control). […] These are the typical effects of the inhibition of FtsZ assembly and consequently of the block of bacterial cell division.
# S. aureus ATCC 43300 (10^9 cells/mL) were cultured in the presence of 1 and DFNB (positive control), at the same concentrations used for optical microscopy and, after 16 h incubation at 37 °C, the cells were harvested and processed for transmission electron microscopy, as already described. Untreated S. aureus was used as negative control. After centrifugation at 3100× g for 5 min at room temperature, pelleted bacteria were fixed in 2.5% glutaraldehyde (Polysciences, Warrington, PA) in 0.1 M Na cacodylate buffer, pH 7.4, for 1 h at 4 °C, rinsed twice and post-fixed in Na cacodylate-buffered 1% OsO4 for 1 h at 4 °C. The samples were dehydrated through a series of graded ethanol solutions and propylene oxide and embedded in Poly/Bed 812 resin mixture. […]
# [12] = Escherichia coli, read-out: MIC
# [13] = Staphylococcus aureus, read-out: MBC
# [14] = Staphylococcus aureus, read-out: MIC
Compound,MBC/MIC [2],MBC/MIC [5],"MIC [1, 12]","MBC [2, 13]","MIC [2, 14]","MBC [5, 13]","MIC [5, 14]","MIC ([6]; Escherichia coli, ATCC25922)","MIC [3, 14]","MIC [7, 14]","MIC ([8]; Escherichia coli, N43)",further results
"3-(1,4-benzodithiane-2-yl)-2,6-difluorobenzamide [Compound 5]",2,2,–,–,–,–,–,–,–,–,–,MIC [1]: >100 µg/mL; MBC [2]: 10 µg/mL; MIC [2]: 5 µg/mL; MIC [3]: 8 µg/mL; TD90 [4]: 200 µg/mL; MBC [5]: 10 µg/mL; MIC [5]: 5 µg/mL; MIC ([6]; E. coli ATCC 25922): >100 µg/mL; MIC [7]: 8 µg/mL; MIC ([8]; E. coli N43 (AcrAB knockout)): >128 µg/mL
"3-(1,4-benzoxathiane-3-yl)-2,6-difluorobenzamide [Compound 3]",1,1,–,–,–,–,–,–,–,–,–,MIC [1]: >100 µg/mL; MBC [2]: 20 µg/mL; MIC [2]: 20 µg/mL; MIC [3]: 32 µg/mL; TD90 [4]: 200 µg/mL; MBC [5]: 20 µg/mL; MIC [5]: 20 µg/mL; MIC ([6]; E. coli ATCC 25922): >100 µg/mL; MIC [7]: 32 µg/mL; MIC ([8]; E. coli N43 (AcrAB knockout)): 128 µg/mL
NC(=O)c1c(F)ccc(OCC2CS(=O)(=O)c3ccccc3O2)c1F (stereo not drawn) [Compound 2],–,–,> 100 µg/mL,> 100 µg/mL,> 100 µg/mL,> 100 µg/mL,> 100 µg/mL,> 100 µg/mL,–,–,–,–
NC(=O)c1c(F)ccc(OCC2COc3ccccc3S2(=O)=O)c1F (stereo not drawn) [Compound 4],–,–,> 100 µg/mL,> 100 µg/mL,> 100 µg/mL,> 100 µg/mL,> 100 µg/mL,> 100 µg/mL,–,–,–,–
NC(=O)c1c(F)ccc(OCCC2CSc3ccccc3O2)c1F (stereo not drawn) [Compound 6],2,2,> 100 µg/mL,5 µg/mL,2.5 µg/mL,5 µg/mL,2.5 µg/mL,> 100 µg/mL,8 µg/mL,4 µg/mL,> 128 µg/mL,–
NC(=O)c1c(F)ccc(OCCC2COc3ccccc3O2)c1F (stereo not drawn) [Compound 7],1,1,> 100 µg/mL,5 µg/mL,5 µg/mL,5 µg/mL,5 µg/mL,> 100 µg/mL,4 µg/mL,4 µg/mL,8 µg/mL,TD90 [4]: 380 µg/mL
NC(=O)c1c(F)ccc(OCCCC2COc3ccccc3O2)c1F (stereo not drawn) [Compound 8],10,10,> 100 µg/mL,100 µg/mL,10 µg/mL,100 µg/mL,10 µg/mL,> 100 µg/mL,32 µg/mL,16 µg/mL,> 128 µg/mL,–
CCN(CC)CCNc1nc(/C=C/c2ccc(Cl)cc2)nc2cc3ccccc3cc12 [Compound Z3],–,–,–,–,–,–,–,–,–,–,–,"MIC ([9]; Methicillin Sensitive S. aureus, ref 10 (Z2, Z3), 11 (TXY436), 12 (I, II)): 2.1 µg/mL; MIC [10]: 4 µg/mL"
"CCCCCCCCCOc1ccc(F)c(C(N)=O)c1F [DFNB, 2,6-difluorononyloxybenzamide, reference compound]",–,–,–,–,–,–,–,–,–,–,–,Morphological changes in septum formation (TEM) [11]: strong alterations in the septum formation and bacterial desegregation
"NC(=O)c1c(F)ccc(OCC2COc3ccccc3O2)c1F (stereo not drawn) [III, reference compound]",16,16,> 100 µg/mL,80 µg/mL,5 µg/mL,80 µg/mL,5 µg/mL,> 100 µg/mL,16 µg/mL,8 µg/mL,> 128 µg/mL,"MBC/MIC ratios ([2]; S. aureus, as summarised in the text from Table 3): 16"
NC(=O)c1c(F)ccc(OCC2CCc3ccccc3O2)c1F (stereo not drawn) [IV],–,–,–,–,–,–,–,–,–,–,–,MIC vs. MSSA [9]: 5 µg/mL
NC(=O)c1c(F)ccc(OCC2COc3ccccc3C2)c1F (stereo not drawn) [V],–,–,–,–,–,–,–,–,–,–,–,MIC vs. MSSA [9]: 100 µg/mL

# — PMC7235863, “Benzamide Derivatives Targeting the Cell Division Protein FtsZ: Modifications of the Linker and the Benzodioxane Scaffold and Their Effects on Antimicrobial Activity” (Antibiotics, 2020)
